Data reported in US20040132795A1, “Methods to screen and treat individuals with glaucoma or the propensity to develop glaucoma” (priority 2001, published 2004).

How the values were obtained:
Format in all cases: in vivo, human
[1] = Treatment with diclofenac for 6 months in the presence of the TIGR mt-1 mutation, mean diurnal IOP
Source text: After treatment for 6 months with varying amounts of diclofenac in the presence of the mt-1 mutation, the following results are observed: […]

[2] = Treatment with diclofenac in glaucomic patients possessing both the mt-1 and mt-11 mutations, mean diurnal IOP; conditions: 0.1% diclofenac
[3] = Treatment with diclofenac in glaucomic patients having the TIGRmt-11 mutation, mean diurnal IOP; conditions: 0.1% diclofenac
Source text: The same procedures described in Example II were followed with respect to administering Diclofenac to glaucomic patients having the […]-11 mutation.

[4] = 0.03% diclofenac, mt-1 mutation present
[5] = 0.06% diclofenac, mt-1 mutation present
[6] = 0.1% diclofenac, mt-1 mutation present

O=C(O)Cc1ccccc1Nc1c(Cl)cccc1Cl [Diclofenac]
Percentage of Patients Exhibiting a Decrease in Diurnal IOP >= 2 mm Hg After 6 Months of Treatment [1, 4]: 36%
Percentage of subjects exhibiting a Mean Diurnel IOP < 22 mm Hg After 6 Months of Treatment [1, 4]: 55%
Percentage of Patients Exhibiting a Decrease in Diurnal IOP >= 2 mm Hg After 6 Months of Treatment [1, 5]: 40%
Percentage of subjects exhibiting a Mean Diurnel IOP < 22 mm Hg After 6 Months of Treatment [1, 5]: 60%
Mean Change in Diurnal IOP at 6 Months ([1]; 0.1% diclofenac, mt-1 mutation absent): −1.5 mm Hg
Mean Change in Diurnal IOP at 6 Months [1, 6]: −2.1 mm Hg
Percentage of Patients Exhibiting a Decrease in Diurnal IOP >= 2 mm Hg After 6 Months of Treatment [1, 6]: 64%
Percentage of subjects exhibiting a Mean Diurnel IOP < 22 mm Hg After 6 Months of Treatment [1, 6]: 64%
Mean Change in Diurnal IOP at 6 Months ([2]; mt-1 and mt-11 mutations absent): −0.6 mm Hg
Mean Change in Diurnal IOP at 6 Months ([2]; mt-1 and mt-11 mutations present): −2.9 mm Hg
Mean Change in Diurnal IOP at 6 Months ([3]; mt-11 mutation absent): −1.3 mm Hg
Mean Change in Diurnal IOP at 6 Months ([3]; mt-11 mutation present): −2.0 mm Hg
